“And” between values parts separate entries of the source, which are not always exact repeats. Equal entries are not always repeated. Where two headings read alike, the source gives them in different places.
How the values were obtained:
LOX129 (LOX-1 129-273) = biological target: T1, LOX129 (LOX-1 129-273) (Homo sapiens, UniProt P78380); test: Surface plasmon resonance, immobilized LOX129; assay type: binding
T1 construct: 6His-tag with thrombin cleavage site (N, cleaved yes); made in house; host or cells: E. coli SHuffle cells (New England BioLabs), pET28a
Experimental: To enable surface plasmon resonance spectroscopy (SPR), LOX129 was immobilized on a SPR chip by amine coupling and compounds were analyzed for binding. Based on the individual sensorgrams the compounds were classified as non-binders, over-stoichiometric binders or dose-dependent binders. In total four different structural classes could be confirmed as dose-dependent and stoichiometric binders. […] The mean binding ratio is 0.78 (Supplementary Table 3). Assuming a high percentage of active, binding competent protein on the chip surface, this ratio represents less than one BI-0115 molecule per LOX-1 monomer.
Binding studies were performed using a Biacore T200 instrument (GE Healthcare) at 25 °C in 20 mM HEPES pH 6.8, 150 mM NaCl, 0.05% Tween 20, and 1% DMSO at a flow rate of 30 μL/min. The interaction analyses were performed in the multi-cycle kinetic mode using 120 s association time and 600 s dissociation time at the following LOX-1 inhibitor concentrations 0.391, 0.78, 1.56, 3.125, 6.25, 12.5 and 25 µM. Data were analyzed using the Biacore T200 Evaluation Software 2.0. Due to a transient binding, the KD was determined from a plot of steady state response levels against analyte concentration (affinity plot). The mean KD value was determined from four individual experiments (Supplementary Table 3). The binding ratio is the average number of compound molecules bound per LOX-1 protein on the surface.

LOX129 = test system: T2, LOX129; test: STD-NMR binding, LOX129; set-up: species or system human; conditions: 5 µM LOX129, 250 µM compound; n = 1
T2 construct: 6His-tag with thrombin cleavage site (N, cleaved yes); made in house; host or cells: E. coli SHuffle cells (New England BioLabs), pET28a
Experimental: Selected cluster representatives were analyzed by multiple biophysical methods to further validate and characterize the identified compounds.
STD NMR binding experiments[51] were performed in 2.5 mm NMR tubes on a Bruker AVII+ 600 MHz spectrometer equipped with a 5 mm cryo-TCI probe and z-gradients. 5 μM LOX129 was incubated with 250 μM BI-0115 in 25 mM Na-phosphate, 100 mM NaCl pH 7.5 in D2O at 298 K and a total d6-DMSO concentration of 1%. The on- and off-resonance spectra were recorded in an interleaved fashion with 256 transients, respectively. Saturation was achieved by irradiation with a Gaussian pulse train for 3 s at resonance frequencies of 100 Hz and 20 kHz, respectively. Residual protein signals were suppressed by employing a 30 ms spin lock pulse prior to acquisition. Water suppression was achieved by a WATERGATE sequence employing a double gradient echo[53]. The signal intensity in the saturation transfer difference spectrum was normalized by the following equation to yield the %STD value: %STD = 100 * (((I(0)-I(sat))/I(0))), where I(0) is the intensity of one signal in the off-resonance and I(sat) the intensity of one signal in the on-resonance spectrum, respectively. Topspin 3.0 (Bruker Biospin) was used to process and analyze data.

- SPR binding kinetics (LOX129 (LOX-1 129-273); in words): fast binding kinetics
- SPR binding ratio (LOX129 (LOX-1 129-273); mean of n = 4, compound molecules bound per LOX-1 protein on the surface): 0.78
- Kd (LOX129 (LOX-1 129-273); mean of n = 4, steady-state fit, 25 °C, read-out: SPR Kd): 4.32 µM and 4.3 µM
- SPR binding ratio, individual measurements (LOX129 (LOX-1 129-273); measurements 1-4, Supplementary Table 3): 0.79 and 0.84 and 0.73 and 0.77
- Kd (LOX129 (LOX-1 129-273); measurements 1-4, Supplementary Table 3, read-out: SPR KD, individual measurements): 3.8 µM and 4.6 µM and 4.12 µM and 4.76 µM
- STD-NMR (LOX129): binding
Compound: CCCN1C(=O)c2ccc(Cl)cc2Nc2ncccc21 [BI-0115]
